Some results are limits rather than exact numbers.

Here are results for one compound from patent US20240199552A1, “AMIDE COMPOUND AND USE THEREOF” (Metisa Biotechnology Co., Ltd, priority 2021, published 2024).

Holding throughout (type): in vivo
In data set [1] the test system is Diamondback moth. The data set is described as follows: Insecticidal activity against Diamondback moth, Airbrush spray on cabbage leaf discs. The settings on record: Plutella xylostella, foliar, 72 h, 3 days after the administration. Put shortly:
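Cabbage leaf discs (2 cm) sprayed front and back by Airbrush at 10 psi with compound diluted in water containing 0.1% Tween-80 (acetone/methanol stock). After shade drying, 10 3rd-instar larvae per disc, 3 replicates, held at 25° C, 60–70% RH; mortality from living larvae counted at 3 days.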

Data set [2] has as its system Mythimna separata. Briefly: Insecticidal activity against Mythimna separata, Airbrush spray on maize leaf pieces. The settings on record: 72 h, 0.05 mg/L, 3 days after the administration, 3rd-instar larvae, read-out: mortality rate against Mythimna separata. The essentials: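 Maize leaf pieces (2 cm) sprayed on both sides by airbrush at 10 psi, 0.5 mL, with compound in water containing 0.1% Tween-80, then shade-dried. Ten 3rd-instar larvae per treatment, 3 replicates, held at 25 °C and 60–70% RH. Mortality scored 3 days after treatment.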

Data set [3] deals with Chilo suppressalis. Briefly: Insecticidal activity against Chilo suppressalis, sprayed rice stems. To be noted: 72 h, 0.625 mg/L, 3 days after the administration, 3rd-instar larvae, read-out: mortality rate against Chilo suppressalis. Put shortly:
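Rice seedlings at 4-5 leaf stage sprayed whole with compound in acetone/methanol diluted in 0.1% Tween-80 water. Air-dried basal stem pieces fed to 3rd-instar larvae, 10 per dish, at 26-28° C. Live larvae counted 3 days after treatment.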

The subject of data set [4] is Spodoptera exigua. The data set is described as follows: Insecticidal activity against Spodoptera exigua, leaf disc dipping feeding method. To be noted: foliar, 72 h, 0.625 mg/L, 3 days after the administration, read-out: mortality rate against Spodoptera exigua. Put shortly:
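Compound in acetone/methanol (1:1), diluted with water containing 0.1% Tween-80; leaf discs dipped for 10 s, air-dried, then fed to Spodoptera exigua (10 insects/dish, 3 replicates). Held at 25° C, 14hL:10hD. Deaths counted on days 1, 2 and 3 after treatment to give mortality.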

Data set [5] relates to Franklinella occidentalis. Briefly: Insecticidal activity against Franklinella occidentalis nymphs, sprayed bean leaves.
Data set [6] deals with Myzus persicae. Briefly: Insecticidal activity against Myzus persicae, Airbrush spray on cabbage leaves. The settings on record: 50 mg/L, after 48 h, read-out: mortality rate against Myzus persicae. Put shortly:
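Cabbage leaf discs carrying 15-30 aphids, winged aphids removed, on moist filter paper; compound in acetone/methanol diluted into 0.1% Tween-80 water, airbrush-sprayed at 10 psi, 0.5 mL, 3 replicates. Held at 25° C, 60-70% RH; live insects counted at 48 h for mortality.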

The subject of data set [7] is cat flea. Briefly: Insecticidal experiment on cat flea, thin film in culture dish. The settings on record: Ctenocephalides felis, 72 h, read-out: mortality rate, cat flea. Put shortly:
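Compound in acetone (100 mg/L) was dried as a film in a culture dish at a dose of 1 μg/cm^2. Ten adult cat fleas, mixed sex, were enclosed at 25° C.; mortality was scored at 72 h, with three repeats.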

Regarding `C#CCN(C(=O)c1ccc(F)cc1)c1cccc(C(=O)Nc2c(I)cc(C(F)(C(F)(F)F)C(F)(F)F)cc2C(F)(F)F)c1F` [Compound 36], the mortality at 0.156 µg/mL in data set [1] (0.156 mg/L, Diamondback moth, read-out: Mortality rate (%, 3 days after the administration) 0.156 mg/L) came to 100%. The mortality at 0.313 µg/mL in data set [1] (0.313 mg/L, Diamondback moth, read-out: Mortality rate (%, 3 days after the administration) 0.313 mg/L) worked out at 100%. The mortality at 1.25 µg/mL in data set [1] (1.25 mg/L, 3rd-instar larvae, read-out: mortality rate against Diamondback moth) is above 90%. Besides, the mortality at 10 µg/mL in data set [1] (10 mg/L, Diamondback moth, read-out: Mortality rate (%, 3 days after the administration) 10 mg/L) turned out to be 100%. Moreover, the mortality at 0.05 µg/mL in data set [2] is above 90%. In addition, the mortality at 0.625 µg/mL in data set [3] and in data set [4] was above 90% in each case. Further, the “Mortality rate (%, 3 days after the administration) 10 mg/L” value in data set [5] (10 mg/L) worked out at 95.56%. In data set [5] (100 mg/L), the “Mortality rate (%, 3 days after the administration) 100 mg/L” value was 100%. For the same compound, the mortality at 50 µg/mL in data set [6] was above 90%. Moreover, in data set [7], the mortality at 1 µg/cm2 was above 90%.
